Measured values published in PubChem BioAssay (NCI).
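1) Cells in 96-well plates. 2) Compound, 48 h, 5 concentrations. 3) Linear interpolation between surrounding doses. 4) Unreached endpoint = highest concentration. TGI denotes the concentration required for complete inhibition of growth.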

Columns and labels:
Experiment in all cases: DTP human tumour cell line panel, 48 h
[1] = tested on: 786-0 renal
[2] = tested on: A498 renal
[3] = tested on: A549 NSCLC
[4] = tested on: ACHN renal
[5] = tested on: BT-549 breast
[6] = tested on: CAKI-1 renal
[7] = tested on: CCRF-CEM leukemia
[8] = tested on: COLO 205 colon
[9] = tested on: EKVX NSCLC
[10] = tested on: HCC-2998 colon
[11] = tested on: HCT-116 colon
[12] = tested on: HCT-15 colon
[13] = tested on: HL-60(TB) leukemia
[14] = tested on: HOP-62 NSCLC
[15] = tested on: HOP-92 NSCLC
[16] = tested on: HS 578T breast
[17] = tested on: HT29 colon
[18] = tested on: IGROV1 ovarian
[19] = tested on: K-562 leukemia
[20] = tested on: KM12 colon
[21] = tested on: LOX IMVI melanoma
[22] = tested on: M14 melanoma
[23] = tested on: MALME-3M melanoma
[24] = tested on: MCF7 breast
[25] = tested on: MDA-MB-231 breast
[26] = tested on: MDA-MB-435
[27] = tested on: MDA-N
[28] = tested on: MOLT-4 leukemia
[29] = tested on: NCI-H226 lung
[30] = tested on: NCI-H23 lung
[31] = tested on: NCI-H460 lung
[32] = tested on: NCI-H522 lung
[33] = tested on: OVCAR-3 ovarian
[34] = tested on: OVCAR-4 ovarian
[35] = tested on: OVCAR-5 ovarian
[36] = tested on: OVCAR-8 ovarian
[37] = tested on: PC-3 prostate
[38] = tested on: RPMI-8226 leukemia
[39] = tested on: SF-268 CNS
[40] = tested on: SF-295 CNS
[41] = tested on: SK-MEL-2 melanoma
[42] = tested on: SK-MEL-28 melanoma
[43] = tested on: SK-MEL-5 melanoma
[44] = tested on: SK-OV-3 ovarian
[45] = tested on: SN12C renal
[46] = tested on: SNB-19 CNS
[47] = tested on: SNB-75 CNS
[48] = tested on: SR leukemia
[49] = tested on: SW-620 colon
[50] = tested on: T-47D breast
[51] = tested on: TK-10 renal
[52] = tested on: U251 CNS
[53] = tested on: UACC-257 melanoma
[54] = tested on: UACC-62 melanoma
[55] = tested on: UO-31 renal

## C=CCOn1c(C=C)nc2c(C)cccc21
[1]
  TGI: 5.83 µM
[2]
  TGI: 17.9 µM
[3]
  TGI: 14.4 µM
[4]
  TGI: 7.15 µM
[5]
  TGI: 19.1 µM
[6]
  TGI: 5.25 µM
[7]
  TGI: 3.68 µM
[8]
  TGI: 3.6 µM
[9]
  TGI: 29.2 µM
[10]
  TGI: 17.8 µM
[11]
  TGI: 4.97 µM
[12]
  TGI: 13.9 µM
[13]
  TGI: 5.1 µM
[14]
  TGI: 22 µM
[15]
  TGI: 34.4 µM
[16]
  TGI: > 100 µM
[17]
  TGI: 11.6 µM
[18]
  TGI: 22.7 µM
[19]
  TGI: 20.6 µM
[20]
  TGI: 13 µM
[21]
  TGI: 12.2 µM
[22]
  TGI: 12.3 µM
[23]
  TGI: 28 µM
[24]
  TGI: 12.5 µM
[25]
  TGI: 14.8 µM
[26]
  TGI: 3.4 µM
[27]
  TGI: 11.4 µM
[28]
  TGI: 17 µM
[29]
  TGI: 16.9 µM
[30]
  TGI: 24.1 µM
[31]
  TGI: 5.04 µM
[32]
  TGI: 4.87 µM
[33]
  TGI: 7.51 µM
[34]
  TGI: 24 µM
[35]
  TGI: 23.3 µM
[36]
  TGI: > 100 µM
[37]
  TGI: 12.1 µM
[38]
  TGI: 17.1 µM
[39]
  TGI: 26.5 µM
[40]
  TGI: 21 µM
[41]
  TGI: 4.79 µM
[42]
  TGI: 25.7 µM
[43]
  TGI: 12.7 µM
[44]
  TGI: 12.5 µM
[45]
  TGI: 13.2 µM
[46]
  TGI: 21.5 µM
[47]
  TGI: 14.5 µM
[48]
  TGI: 12.6 µM
[49]
  TGI: 11.2 µM
[50]
  TGI: 7.25 µM
[51]
  TGI: 8.05 µM
[52]
  TGI: 4.84 µM
[53]
  TGI: 12.1 µM
[54]
  TGI: 6.93 µM
[55]
  TGI: 6.03 µM
